Measurements as given in patent US11440932B2, “Surfactant compounds-clips for extraction and stabilization in solution of membrane proteins” (CENTRE NATIONAL DE LA RECHERCHE SCIENTIFIQUE, priority 2017, dated 2022).
Entries after “also recorded” stand apart in the source; their conditions may differ. Residues, ends and D or L forms follow the SMILES beside them. *: point of attachment. Palmitoyl = CCCCCCCCCCCCCCCC(=O)*; Myristoyl = CCCCCCCCCCCCCC(=O)*; Decanoyl = CCCCCCCCCC(=O)*

How the values were obtained:
[1] = Critical micelle concentration (CMC) by DPH fluorescence; type: physicochemical; conditions: 50 mM tris-HCl, pH 8.0
Description: FIG. 4 represents the fluorescence (%) of DPH (1,6-diphenyl-1,3,5-hexatriene) in the presence of increasing concentrations (0.0001 mM, 0.001 mM, 0.01 mM, 0.1 mM, 1 mM and 10 mM) of clips (compounds of the invention), exemplified with the compounds #3.7e (C13, points represented by squares) and 3.7f (C18, points represented by circles). The experiment is carried out in triplicates. In accordance with Chattopadhyay, A. & London, E ([22]), the CMC corresponds to the concentration at which the breakage in the slope is observed, here at 20 μM for 3.7f and 2 mM for 3.7e (black symbols).
Procedure. The molecules of the invention were prepared in a range of concentrations extending from 0.1 μM to 10 mM in 50 mM tris-HCl, pH 8.0 and neutralized at this pH. To 80 μl of each solution (triplicate), the same volume of 10 μM of 1,6-diphenyl-1,3,5-hexatriene (DPH, Sigma, D208000) is added, prepared at 100 μM in tetrahydrofuran then diluted 10-fold in H2O. The increase in the fluorescence of the DPH occurs when the latter find micelles of clips into which it can insert itself (Chattopadhyay, A. & London, E. Fluorimetric determination of critical micelle concentration avoiding interference from detergent charge. Anal Biochem 139, 408-412 (1984) ([22])). The fluorescence is read with a Xenius SAFAS fluorimeter by exciting at 358 nm and recording the fluorescence emission at 430 nm, with slits of 9 to 10 nm for the excitation and the emission and a gain of 100 to 150, depending on the cases.
Results. The CMC of the detergents is the concentration starting from which they associate with one another to form micelles, in which, in aqueous solution, the hydrophobic portions are grouped together at the center and the hydrophilic regions are exposed to the solvent. […] A typical result obtained with a compound 3.7 provided with a C13 (3.7e) or C18 ([…]) aliphatic chain is illustrated in FIG. 4.

[2] = target: T1, AcrB (Escherichia coli, UniProt P31224); test: Extraction of AcrB from membranes (SDS-PAGE of supernatant); parameters: species or system bacterial; same expression system (E. coli C41DE3); conditions: for extraction of AcrB: detergent 10 g/l unless indicated otherwise, 2 h at 4° C.
T1 construct: made in house; host or cells: E. coli C41(DE3)
T1 sequence (P31224 whole entry): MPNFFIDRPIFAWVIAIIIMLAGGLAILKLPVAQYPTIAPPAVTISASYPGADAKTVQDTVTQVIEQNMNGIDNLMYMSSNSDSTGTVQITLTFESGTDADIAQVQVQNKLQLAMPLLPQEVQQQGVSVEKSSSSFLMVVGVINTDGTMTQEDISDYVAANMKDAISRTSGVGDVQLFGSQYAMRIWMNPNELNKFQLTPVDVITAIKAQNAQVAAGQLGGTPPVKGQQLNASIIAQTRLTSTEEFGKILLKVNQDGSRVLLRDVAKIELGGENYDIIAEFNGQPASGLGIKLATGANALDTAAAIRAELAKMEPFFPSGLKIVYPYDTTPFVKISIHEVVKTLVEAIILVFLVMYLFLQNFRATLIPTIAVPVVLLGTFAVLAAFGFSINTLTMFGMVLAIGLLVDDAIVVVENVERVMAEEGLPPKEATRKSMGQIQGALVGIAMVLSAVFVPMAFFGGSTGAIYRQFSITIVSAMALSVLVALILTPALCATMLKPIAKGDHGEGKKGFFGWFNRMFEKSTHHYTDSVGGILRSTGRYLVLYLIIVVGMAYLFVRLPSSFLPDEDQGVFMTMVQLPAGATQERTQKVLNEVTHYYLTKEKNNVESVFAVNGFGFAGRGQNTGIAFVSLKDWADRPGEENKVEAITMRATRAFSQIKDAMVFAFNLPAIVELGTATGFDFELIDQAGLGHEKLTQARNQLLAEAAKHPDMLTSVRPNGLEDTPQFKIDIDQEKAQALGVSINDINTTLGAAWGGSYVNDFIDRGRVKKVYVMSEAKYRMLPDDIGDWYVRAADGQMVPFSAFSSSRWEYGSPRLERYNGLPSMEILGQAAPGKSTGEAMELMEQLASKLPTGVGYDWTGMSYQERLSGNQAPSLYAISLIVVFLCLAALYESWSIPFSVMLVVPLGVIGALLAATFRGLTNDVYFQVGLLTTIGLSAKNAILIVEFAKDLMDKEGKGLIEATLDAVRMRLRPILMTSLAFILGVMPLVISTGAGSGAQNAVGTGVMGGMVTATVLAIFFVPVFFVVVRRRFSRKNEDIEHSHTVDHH
Description: (§1) FIG. 6 depicts the extraction of the membrane proteins BmrA (panels A and C) and AcrB (panels B and D) using commercial detergents and the molecules of the invention (panels A and B, from left to right): SDS, DDM, FC12, TX100, compounds of the invention 1.4, 1.5, 2.3a, 2.3b, 2.3c, 2.3d, 2.3e, 2.3f, 2.3g, 2.3h, 2.3i, 3.7a, 3.7b; panel C: compounds of the invention 3.7c 0.8%, 3.7d 0.16%, 3.7e 0.8%, 3.7f 0.3%, 3.7g 0.4%, 3.7h 0.2%, 3.7i 0.07%, 3.7j 0.09%, 3.7k, 3.7l, 0.25%, 3.9a, 4.5a, 4.5b, 4.5c, 4.5d 0.34%, 4.6a, 4.6b, 4.6c, 4.6d, 5.3a, 5.3b, 5.3c 0.3%, 5.3d 0.3%; panel D: 3.7c, 3.7d, 3.7e, 3.7f, 3.7h, 3.7i 0.1%, 3.7j, 3.7k, 3.7l, 3.9a, 4.5a, 4.5b, 4.5c, 4.5d, 4.6a, 4.6b, 4.6c, 4.6d. The detergents are added at 10 g/l (1%), unless indicated otherwise. The equivalent of 20 μg of proteins of the extracted fraction after centrifugation at 100 000×g for 30 min is deposited on 10% SDS-PAGE, stained with Coomassie blue after migration. BmrA migrates in its monomeric form to the level of the 55 kDa band; AcrB migrates in its monomeric form to the level of the 100 kDa band. SDS=sodium dodecyl sulfate; DDM=β-D-dodecyl maltoside; FC12=foscholine-12; TX100=triton X-100.
(§2) The extraction capacity of the detergents of the series is tested on membranes in which BmrA or AcrB are strongly expressed. The extraction with the clips (molecules of the invention) is compared to that obtained with commercial detergents, used as reference.
(§3) Procedure. BmrA represents 25% of the proteins present in the overexpression system used (E. coli, C41DE3). These membranes are prepared as described previously (Matar-Merheb, R. et al. ([11])). The membranes containing AcrB (approximately 20% of the membrane proteins, same expression system as BmrA) were prepared as described previously (Seeger, M. A. et al. ([21])). The detergents are used at 10 g/l unless indicated otherwise, and the proteins diluted at 2 g/l in a 20 mM Tris-HCl buffer, pH 8.0, 100 mM NaCl, 15% glycerol, with protease inhibitors (Roche) added thereto at an amount of one tablet/100 ml. The mixture (T) is incubated for 2 h at 4° C. then centrifuged for 1 h at 4° C. at 100 000×g in order to separate the extracted fraction (supernatant, S) from that which is not extracted (pellet). The supernatants are deposited on 10% SDS-PAGE and stained with Coomassie blue after migration. The foscholine 12, DDM and LMNG originate from Anatrace, the SDS and Triton X100 originate from Sigma-Aldrich.

[3] = target: T2, BmrA (Bacillus subtilis, UniProt O06967); test: Extraction of BmrA from membranes (SDS-PAGE of supernatant); parameters: species or system bacterial; overexpressed in E. coli C41DE3; conditions: detergent 10 g/l unless indicated otherwise; 2 h at 4° C.
T2 construct: His tag; made in house; host or cells: E. coli C41(DE3)
T2 sequence (O06967 whole entry): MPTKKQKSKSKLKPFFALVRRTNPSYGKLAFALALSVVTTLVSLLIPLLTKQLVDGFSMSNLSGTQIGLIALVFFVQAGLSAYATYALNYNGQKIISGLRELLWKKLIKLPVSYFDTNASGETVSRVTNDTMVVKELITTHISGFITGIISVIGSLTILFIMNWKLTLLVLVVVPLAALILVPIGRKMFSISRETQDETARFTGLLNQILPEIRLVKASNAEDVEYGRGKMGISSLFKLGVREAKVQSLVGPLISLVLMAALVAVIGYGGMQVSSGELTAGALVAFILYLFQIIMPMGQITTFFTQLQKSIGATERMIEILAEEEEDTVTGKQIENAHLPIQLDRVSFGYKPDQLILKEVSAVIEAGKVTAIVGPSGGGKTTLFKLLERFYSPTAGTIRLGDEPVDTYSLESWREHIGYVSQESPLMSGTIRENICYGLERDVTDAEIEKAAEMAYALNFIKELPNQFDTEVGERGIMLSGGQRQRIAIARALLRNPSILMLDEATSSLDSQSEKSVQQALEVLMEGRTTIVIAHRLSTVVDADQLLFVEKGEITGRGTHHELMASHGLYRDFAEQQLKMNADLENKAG
Description: as §1, §2, §3

[4] = target: T2, BmrA; test: ATPase activity of BmrA after addition of detergents; type: biochemical, bacterial; produced in E. coli C41 DE3
Description: FIG. 7 depicts the effect of the detergents of the invention on the functionality of BmrA (ATPase activity, %). The membrane fraction enriched in BmrA (˜25%) diluted to 2 g/l has the compounds added to it at the concentrations (mM) indicated (panel A, from top to bottom: 3.7e 10.7 mM, 3.7e 8.6 mM, 3.7e 6.4 mM, 3.7e 4.3 mM, 3.7e 2.2 mM, 3.7e 1.1 mM, 3.7d 4 mM, 3.7d 3 mM, 3.7d 2 mM, 3.7d 1 mM, 3.7d 0.8 mM, 3.7d 0.6 mM, 3.7d 0.05 mM, 3.7d 0.03 mM, 3.7d 0.02 mM, 3.7c 13 mM, 3.7c 10.4 mM, 3.7c 10 mM, 3.7b 1.5 mM, 3.7b 0.7 mM, 3.7b 0.5 mM, 2.3gNa2 20.5 mM, 2.3gK2 19.3 mM, 2.3f 21.1 mM, 2.3e 22 mM, 2.3d 23.2 mM, 2.3a 3.2 mM, 1.5a 22 mM, DDM 20 mM, DDM 2 mM, DDM 10 mM, DOM 2 mM, DDM 1 mM, LMNG 10 mM, LMNG 1 mM, LMNG 0.1 mM, LMNG 0.01 mM, FA3 27 mM, FA3 9 mM, FA3 2 mM, FA3 1 mM, TX100 16 mM; panel B from top to bottom: compounds of the invention 5.3d 3.2 mM, 5.3c 3.3 mM, 5.3b 11.7 mM, 5.3b 2.9 mM, 5.3a 3 mM, 4.6c 14.6 mM, 4.6b 15.2 mM, 4.5c 18.6 mM, 4.5b 19.6 mM, 3.9a 8 mM, 3.9a 0.51 mM, 3.9a 0.31 mM, 3.9a 0.11 mM, 3.7l 12.01 mM, 3.7l 6.01 mM, 3.7l 3 mM, 3.7l 1 mM, 3.7k 10 mM, 3.7k 3 mM, 3.7j 3 mM, 3.7j 2 mM, 3.7j 1 mM, 3.7j 0.6 mM, 3.7j 0.03 mM, 3.7j 0.02 mM, 3.7j 1 mM, 3.7i 0.3 mM, 3.7h 3 mM, 3.7h 2 mM, 3.7h 1 mM, 3.7h 0.6 mM, 3.7h 0.58 mM, 3.7h 0.5 mM, 3.7h 0.35 mM, 3.7h 0.1 mM, 3.7h 0.5 mM, 3.7h 0.35 mM, 3.7h 0.1 mM, 3.7h 0.05 mM, 3.7h 0.03 mM, 3.7h 0.02 mM, 3.7g 12.5 mM, 3.7g 9 mM, 3.7g 7.5 mM, 3.7g 5 mM, 3.7g 3 mM, 3.7g 1 mM, 3.7f 3.2 mM, 3.7f 2 mM, 3.7f 1 mM, 3.7f 0.061 mM, 3.7f 0.031 mM, 3.7f 0.015 mM). After incubation for 2 h at 4° C., the ATPase activity is measured. The solutions are subsequently centrifuged for 1 h at 4° C., 100 000×g, and the supernatants deposited on 10% SDS-PAGE (cf. FIG. 8). The gray and black histograms correspond to the concentrations at which BmrA is partially (gray) or entirely (black) extracted, according to these SDS-PAGE. The ATPase activity is in % relative to that of the protein without compound, 0.7 μmol ATP hydrolyzed/min/mg of proteins.
The molecules of the invention which extract BmrA in the previous example were tested at different sub-solubilizing and solubilizing concentrations, to evaluate their impact on the native and functional state of the protein. The latter is monitored by the hydrolysis of ATP which is carried out by the protein during the transport cycle, coupled with translocation of the solute. As reported previously (Matar-Merheb, R. et al. ([11])), the ATPase activity of BmrA is a highly sensitive marker of the state of the protein, the latter being particularly sensitive to the detergents used during the extraction step, where said detergents replace the lipids on contact with the membrane protein.
Procedure. BmrA produced and enriched in the plasma membrane of E. coli C41 DE3 is prepared as described previously (Matar-Merheb, R. et al. ([11])). The membranes are diluted at 2 g/l in a 20 mM Tris-HCl buffer, pH 8.0, 100 mM NaCl, 15% glycerol, with protease inhibitors (Roche) added thereto at an amount of one tablet/100 ml. The mixture (T) is incubated for 2 h at 4° C. and the ATPase activity is measured using the coupled-enzyme system, separating off the vanadate-insensitive activity from the total activity, Centeno, F. et al. Expression of the sarcoplasmic reticulum Ca^2+-ATPase in yeast. FEBS Lett 354, 117-122 (1994) ([25])). The solutions are subsequently centrifuged for 1 h at 4° C. at 100 000×g in order to separate the extracted fraction (supernatant, S) from that which is not extracted (pellet). The supernatants are deposited on 10% SDS-PAGE and stained with Coomassie blue after migration (FIG. 8). DDM, LMNG (Chae, P. S. et al. ([6])), TritonX100 and FA3 (Lee, S. C. et al. (2013) ([9])) are tested as reference detergents. The DDM and LMNG originate from Anatrace, the Triton X100 originates from Sigma-Aldrich and the FA3 from Avanti-Polars.

| Structure (SMILES) | CMC [1] | extraction of AcrB [2] | extraction of BmrA [3] | selective extraction AcrB versus BmrA ([2]; comparison of extraction of AcrB and BmrA) | ATPase activity of BmrA ([4]; relative to protein without compound, at concentrations that solubilize/extract BmrA (LMNG 10 mM; DDM beyond 5 mM), 2 h at 4° C.) | impact on the activity of BmrA ([4]; up to 1 mM) |
| --- | --- | --- | --- | --- | --- | --- |
| CCCCCCCCCCCCCC(=O)NC(CC(=O)O)C(=O)NC(CCC(=O)O)C(=O)O (stereo not drawn) [Compound 4.5c] (Myristoyl-Asp-Glu-OH; configuration not given here) | 1.5 mM | extracting | partially extracting |  |  |  |
| CCCCCCCCCCCCCCCC(=O)NC(CC(=O)O)C(=O)NC(CCC(=O)O)C(=O)O (stereo not drawn) [Compound 4.5d] (Palmitoyl-Asp-Glu-OH; configuration not given here) | 1 mM | extracting | extracting |  |  |  |
| CCCCCCCCCC(=O)NC(CC(=O)NC(CCC(=O)O)C(=O)O)C(=O)NC(CCC(=O)O)C(=O)O (stereo not drawn) [Compound 4.6a] (Decanoyl-Asp(Glu)-Glu-OH; configuration not given here) | 1 mM | do not extract | non-extracting |  |  |  |
| CCCCCCCCCCCCCCCC(=O)NC(CC(=O)NC(CCC(=O)O)C(=O)O)C(=O)NC(CCC(=O)O)C(=O)O (stereo not drawn) [Compound 4.6d] (Palmitoyl-Asp(Glu)-Glu-OH; configuration not given here) | 1 mM | extracting; also recorded: partially extract | extracting | not extract, or only very slightly extract, AcrB, unlike BmrA |  |  |
| CCCCCCCCCCC(CCCCCCCCCC)(CO[C@@H]1O[C@H](CO)[C@@H](O[C@H]2O[C@H](CO)[C@@H](O)[C@H](O)[C@H]2O)[C@H](O)[C@H]1O)CO[C@@H]1O[C@H](CO)[C@@H](O[C@H]2O[C@H](CO)[C@@H](O)[C@H](O)[C@H]2O)[C@H](O)[C@H]1O [LMNG, lauryl maltose neopentyl glycol, reference compound] |  |  |  |  | 25% | relatively low impact |
